Data as given in US20240199623A1 (ILDONG PHARMACEUTICAL CO., LTD., priority 2020, published 2024).
≈ marks a conversion by molar mass, not a printed value.

Columns and labels:
human wild type-CFTR [1] = target: T1, human wild type-CFTR (Homo sapiens, UniProt P13569); experiment: Short-circuit current measurement; assay type: cell-based; set-up: expressed in transfected cells; settings: FRT cells expressing human wild type-CFTR; Forskolin 20 μM signal used as 100% activity; read-out: Short-circuit current measurement (EC50) Concentration range
Source text: Forskolin (Tocris cat. #1099), CFTRinh-172 (Tocris cat. #3430), amphotericin B (Tocris cat. #6930), dimethyl sulfoxide (Sigma cat. #D4540), EVC4000 Multi-Channel V/I Clamp (World Precision Instruments, Sarasota, FL), PowerLab 4/35 (AD Instruments, Castle Hill, Australia), Labchart Pro 7, GraphPad Prism 5 (GraphPad Software, Inc.). Fisher rat thyroid (FRT) cells expressing human wild type-CFTR were provided by Dr. Alan Verkman (University of California, San Francisco) and grown in DMEM/F12 medium (1:1) supplemented with 10% FBS, 2 mM glutamine, 100 units/ml penicillin and 100 μg/ml streptomycin. Snapwell inserts containing CF TR-expressing FRT cells were mounted in Ussing chambers (Physiologic Instruments, San Diego, CA). […] Forskolin, test compounds, and CFTRinh-172 were added to the apical and basolateral bath solution. Apical membrane current and short-circuit current were measured with an EVC4000 Multi-Channel V/I Clamp (World Precision Instruments, Sarasota, FL) and recorded using PowerLab 4/35 (AD Instruments, Castle Hill, Australia). Data were collected and analyzed with ADInstruments acquisition software Labchart Pro 7 software. The sampling rate was 4 Hz.

[2] = Phosphate-buffered saline (PBS) solubility of compounds; assay type: physicochemical; settings: aqueous buffer, thermodynamic from solid, PBS pH 7.5, 0.5 mg/mL, vortexed 90 min, filtered, LC-MS/MS, read-out: Solubility Range
Experimental: PBS solutions (pH 7.5) were prepared according to the following compositions and stored at 4° C. Test compounds were dissolved in PBS (pH 7.5) at 0.5 mg/mL and vortexed for 90 min. The PBS solution was sequentially filtered through a 0.45, 1.2, […] syringe filter. Concentration of test compounds were determined using LC-MS/MS with appropriate dilution of the samples.

human wild type-CFTR [3] = target: T1, human wild type-CFTR; experiment: Cell-based YFP assay; set-up: expressed in transfected cells; host or cells: CHO-K1 (Chinese hamster ovary); settings: CHO-K1 cells expressing human wild type-CFTR and YFP-H148Q/I152L; forskolin 20 μM = 100% activity; read-out: Cell-based YFP Assay (EC50) Concentration Range
Procedure, shortened: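 CHO-K1 cells co-expressing human wild-type CFTR and YFP-H148Q/I152L halide sensor, grown 48 h at 37 °C, then in PBS. YFP quenching by I⁻ influx read at 37 °C after adding 140 mM I⁻ solution, sampled every 0.4 s for 14 s. Triplicates averaged; EC50 fitted.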

C57BL/6 female mice = experiment: Scopolamine induced tear volume reduction model; assay type: in vivo, mouse; settings: scopolamine-injected mice, ophthalmic solution topically on both eyes 3 times a day, phenol red thread; average if evaluated twice
Experimental: Seven-week old C57BL/6 female mice were used.
Scopolamine hydrobromide was purchased from Sigma Aldrich (Cat No. S0929), dissolved in saline, and sterilized prior to use.
Zone-Quick phenol red thread was obtained from Menicon.
The test compounds used in this experiment were dissolved in PBS containing 1% of surfactant.
Scopolamine (0.2 ml of 2.5 mg/mL solution) was injected subcutaneously 3 times a day to induce a decrease in the tear volume in the mouse. At the same time, the ophthalmic solution of test compounds or vehicle were topically administered onto both eyes 3 times a day. Tear volume was measured by phenol red thread before dosing (basal level) and 1 hour after the last administration of scopolamine and ophthalmic solution. The results were obtained by measuring the length of the phenol red thread turning red by tears. The schedule of study is expressed as FIG. 1.
If the test compound was evaluated twice, the average value was used.

T1 sequence (P13569 whole entry): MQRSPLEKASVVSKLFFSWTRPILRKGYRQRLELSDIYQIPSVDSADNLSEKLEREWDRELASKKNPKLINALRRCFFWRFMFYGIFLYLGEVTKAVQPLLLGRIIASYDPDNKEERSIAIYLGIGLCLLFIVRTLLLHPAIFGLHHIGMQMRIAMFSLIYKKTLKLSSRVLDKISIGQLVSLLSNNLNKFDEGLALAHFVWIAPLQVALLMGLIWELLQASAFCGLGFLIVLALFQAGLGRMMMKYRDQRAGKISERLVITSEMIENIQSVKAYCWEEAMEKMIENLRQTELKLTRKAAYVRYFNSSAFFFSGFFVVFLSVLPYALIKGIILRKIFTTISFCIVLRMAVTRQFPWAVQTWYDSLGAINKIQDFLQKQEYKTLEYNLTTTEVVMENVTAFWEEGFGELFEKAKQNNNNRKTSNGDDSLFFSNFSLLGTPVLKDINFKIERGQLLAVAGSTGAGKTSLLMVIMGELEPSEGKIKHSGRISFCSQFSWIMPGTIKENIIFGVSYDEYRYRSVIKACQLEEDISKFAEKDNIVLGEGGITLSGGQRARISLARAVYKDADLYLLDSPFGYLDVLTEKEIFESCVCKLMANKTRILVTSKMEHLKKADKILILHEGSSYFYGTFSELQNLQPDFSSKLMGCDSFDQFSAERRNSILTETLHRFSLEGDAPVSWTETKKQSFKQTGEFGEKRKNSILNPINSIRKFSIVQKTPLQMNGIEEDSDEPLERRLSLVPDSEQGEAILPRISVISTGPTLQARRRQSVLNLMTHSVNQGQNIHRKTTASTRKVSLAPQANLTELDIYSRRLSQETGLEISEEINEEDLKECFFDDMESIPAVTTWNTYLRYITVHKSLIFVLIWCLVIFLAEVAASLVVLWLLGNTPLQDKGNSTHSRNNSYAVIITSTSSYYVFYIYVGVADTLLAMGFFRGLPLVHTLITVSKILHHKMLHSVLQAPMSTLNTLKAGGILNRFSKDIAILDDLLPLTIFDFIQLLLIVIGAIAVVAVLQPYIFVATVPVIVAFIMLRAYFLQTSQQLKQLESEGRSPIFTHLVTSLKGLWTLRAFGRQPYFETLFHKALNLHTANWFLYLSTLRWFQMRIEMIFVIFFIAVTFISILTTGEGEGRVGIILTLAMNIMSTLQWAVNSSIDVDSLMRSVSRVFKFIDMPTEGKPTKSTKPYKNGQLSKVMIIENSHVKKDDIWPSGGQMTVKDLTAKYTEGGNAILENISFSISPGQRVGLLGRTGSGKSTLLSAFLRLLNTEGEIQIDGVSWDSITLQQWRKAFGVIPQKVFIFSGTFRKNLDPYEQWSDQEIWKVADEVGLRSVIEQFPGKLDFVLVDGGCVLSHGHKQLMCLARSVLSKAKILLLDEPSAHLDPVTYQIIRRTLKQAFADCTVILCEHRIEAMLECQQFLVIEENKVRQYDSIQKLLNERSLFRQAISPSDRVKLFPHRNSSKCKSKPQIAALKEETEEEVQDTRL

Compound | EC50 (human wild type-CFTR [1]) | solubility at 90 min [2] | EC50 (human wild type-CFTR [3]) | Ratio of tear volume (test compound to vehicle) (C57BL/6 female mice)
COc1ccc(-c2ccnc3cc(C(=O)NC4CCCCC4)nn23)cc1OC [Compound 2, N-cyclohexyl-7-(3,4-dimethoxyphenyl)pyrazolo[1,5-a]pyrimidine-2-carboxamide] | 200 to 2000 nM | < 0.1 µg/mL | < 200 nM | 1.40
CCOc1ccc(NC(=O)c2cc3nccc(-c4ccc(OC)c(OC)c4)n3n2)cc1 [Compound 3, 7-(3,4-dimethoxyphenyl)-N-(4-ethoxyphenyl)pyrazolo[1,5-a]pyrimidine-2-carboxamide] | < 200 nM | < 0.1 µg/mL | < 200 nM | 1.20
COc1ccc(NC(=O)c2cc3nccc(-c4ccc(OC)c(OC)c4)n3n2)cc1 [Compound 6, 7-(3,4-dimethoxyphenyl)-N-(4-methoxyphenyl)pyrazolo[1,5-a]pyrimidine-2-carboxamide] | < 200 nM | < 0.1 µg/mL | < 200 nM | 1.58
COC(=O)C12CC(NC(=O)c3cc4nccc(-c5ccc(OC)c(OC)c5)n4n3)(C1)C2 [Compound 36, methyl 3-(7-(3,4-dimethoxyphenyl)pyrazolo[1,5-a]pyrimidine-2-carboxamido)bicyclo[1.1.1]pentane-1-carboxylate] | ≥ 2000 nM | 0.1 to 10 µg/mL (≈ 0.237 to 23.7 µM) | 200 to 2000 nM | 1.23
COc1ccc(-c2ccnc3cc(C(=O)N[C@H]4CC[C@H](O)CC4)nn23)cc1OC [Compound 69, 7-(3,4-dimethoxyphenyl)-N-((1R,4R)-4-hydroxycyclohexyl)pyrazolo [1,5-a]pyrimidine-2-carboxamide] | ≥ 2000 nM | > 10 µg/mL | 200 to 2000 nM | 0.76
COc1ccc(-c2ccnc3cc(C(=O)N[C@H]4CC[C@@H](C(=O)N5CCOCC5)CC4)nn23)cc1OC [Compound 72, 7-(3,4-dimethoxyphenyl)-N-((1S,4S)-4-(morpholine-4-carbonyl)cyclohexyl) pyrazolo[1,5-a]pyrimidine-2-carboxamide] | ≥ 2000 nM | > 10 µg/mL | 200 to 2000 nM | 1.06
COc1ccc(-c2ccnc3cc(C(=O)Nc4ccc(C(=O)O)cc4Cl)nn23)cc1OC [Compound 106, 3-chloro-4-(7-(3,4-dimethoxyphenyl)pyrazolo [1,5-a]pyrimidine-2-carboxamido)benzoic acid] | ≥ 2000 nM | < 0.1 µg/mL | < 200 nM | –
COc1ccc(-c2ccnc3cc(C(=O)Nc4ccc(C(=O)O)cc4C)nn23)cc1OC [Compound 126, 4-(7-(3,4-dimethoxyphenyl)pyrazolo[1,5-a]pyrimidine-2-carboxamido)-3-methylbenzoic acid] | ≥ 2000 nM | 0.1 to 10 µg/mL (≈ 0.231 to 23.1 µM) | 200 to 2000 nM | 0.97
COc1ccc(-c2ccnc3cc(C(=O)Nc4ccc(C(=O)N5CCOCC5)cc4C)nn23)cc1OC [Compound 127, 7-(3,4-dimethoxyphenyl)-N-(2-methyl-4-(morpholine-4-carbonyl)phenyl)pyrazolo[1,5-a] pyrimidine-2-carboxamide] | 200 to 2000 nM | < 0.1 µg/mL | 200 to 2000 nM | –
COC(=O)c1ccc2c(c1)CCN2C(=O)c1cc2nccc(-c3ccc(OC)c(OC)c3)n2n1 [Compound 130, methyl 1-(7-(3,4-dimethoxyphenyl)pyrazolo [1,5-a]pyrimidine-2-carbonyl)indoline-5-carboxylate] | 200 to 2000 nM | < 0.1 µg/mL | < 200 nM | –
COC(=O)c1ccc2c(c1)CN(C(=O)c1cc3nccc(-c4ccc(OC)c(OC)c4)n3n1)CC2 [Compound 131, methyl 2-(7-(3,4-dimethoxyphenyl)pyrazolo [1,5-a]pyrimidine-2-carbonyl)-1,2,3,4-tetrahydroisoquinoline-7-carboxylate] | < 200 nM | < 0.1 µg/mL | < 200 nM | –
COC(=O)c1ccc2c(c1)N(C(=O)c1cc3nccc(-c4ccc(OC)c(OC)c4)n3n1)CC2 [Compound 132, methyl 1-(7-(3,4-dimethoxyphenyl)pyrazolo [1,5-a]pyrimidine-2-carbonyl)indoline-6-carboxylate] | 200 to 2000 nM | < 0.1 µg/mL | < 200 nM | –
COC(=O)c1ccc2c(c1)CCCN2C(=O)c1cc2nccc(-c3ccc(OC)c(OC)c3)n2n1 [Compound 133, methyl 1-(7-(3,4-dimethoxyphenyl)pyrazolo [1,5-a]pyrimidine-2-carbonyl)-1,2,3,4-tetrahydroquinoline-6-carboxylate] | < 200 nM | < 0.1 µg/mL | < 200 nM | –
COc1ccc(-c2ccnc3cc(C(=O)Nc4ccc(C(=O)OCCCN5CCOCC5)cn4)nn23)cc1OC [Compound 142, 3-morpholinopropyl 6-(7-(3,4-dimethoxyphenyl)pyrazolo [1,5-a]pyrimidine-2-carboxamido)nicotinate] | < 200 nM | < 0.1 µg/mL | < 200 nM | –
COc1ccc(-c2ccnc3cc(C(=O)Nc4ccc(C(=O)N[C@H](C(=O)N5CCN(C)CC5)C(C)C)cc4)nn23)cc1OC [Compound 146, (S)-7-(3,4-dimethoxyphenyl)-N-(4-((3-methyl-1-(4-methylpiperazin-1-yl)-1-oxobutan-2-yl)carbamoyl)phenyl) pyrazolo[1,5-a]pyrimidine-2-carboxamide] | < 200 nM | < 0.1 µg/mL | < 200 nM | –
COc1ccc(-c2ccnc3cc(C(=O)N[C@H]4CC[C@H](C(=O)OCCCN5CCOCC5)CC4)nn23)cc1OC [Compound 197, 3-morpholinopropyl (1r,4r)-4-(7-(3,4-dimethoxyphenyl)pyrazolo [1,5-a]pyrimidine-2-carboxamido)cyclohexane-1-carboxylate] | 200 to 2000 nM | – | 200 to 2000 nM | 1.18
COc1ccc(-c2ccnc3cc(C(=O)Nc4ccc(NC(=O)OC(C)(C)C)cc4)nn23)cc1OC [Compound 256, tert-butyl (4-(7-(3,4-dimethoxyphenyl)pyrazolo [1,5-a]pyrimidine-2-carboxamido)phenyl) carbamate] | < 200 nM | < 0.1 µg/mL | < 200 nM | –
COc1ccc(-c2ccnc3cc(C(=O)Nc4ccc(N5CCN(C(=O)OC(C)(C)C)CC5)cn4)nn23)cc1OC [Compound 272, tert-butyl 4-(6-(7-(3,4-dimethoxyphenyl)pyrazolo [1,5-a]pyrimidine-2-carboxamido)pyridin-3-yl)piperazine-1-carboxylate] | – | < 0.1 µg/mL | < 200 nM | 1.14
COc1ccc(-c2ccnc3cc(C(=O)Nc4ccc(N5CC=CCC5)cc4)nn23)cc1OC [Compound 273, N-(4-(3,6-dihydropyridin-1(2H)-yl)phenyl)-7 (3,4-dimethoxyphenyl) pyrazolo[1,5-a]pyrimidine-2-carboxamide] | – | < 0.1 µg/mL | < 200 nM | 0.80
COc1ccc(-c2ccnc3cc(C(=O)Nc4ccc(N(C)C)cc4)nn23)cc1OC [Compound 276, 7-(3,4-dimethoxyphenyl)-N-(4-(dimethylamino)phenyl)pyrazolo[1,5-a]pyrimidine-2-carboxamide] | – | < 0.1 µg/mL | < 200 nM | 1.21
COc1ccc(-c2ccnc3cc(C(=O)Nc4ccc(N5CCCC5)cc4)nn23)cc1OC [Compound 277, 7-(3,4-dimethoxyphenyl)-N-(4-(pyrrolidin-1-yl)phenyl)pyrazolo[1,5-a] pyrimidine-2-carboxamide] | < 200 nM | < 0.1 µg/mL | < 200 nM | –
